Data on six compounds can be found in patent US5571816A, “Pyrimidines” (Hoechst Aktiengesellschaft, priority 1992, dated 1996).

Where a name gives a salt, the structure may show the parent alone. Read-outs that look alike come from different tables or passages of the source.

One data set deals with LDL receptor mRNA. The data set can be described thus: Stimulation of LDL receptor mRNA expression in HepG2 cells (Northern blot). Type of data set: cell-based. As to conditions: Homo sapiens; HepG2, 2 × 10^-6 M, 16 h; control = 100%; ratio to β-actin mRNA. Here is the method: 1a. In the human hepatocytoma cell line HepG2, which is recognized everywhere as model, the LDL receptor mRNA levels are increased by the compounds of the formula I (Table I).
The mRNA was prepared by the method described by Chomczynski, P. and Sacchi, N., in Anal. Biochem. 162, 156-159 (1987). In the case of organs (such as, for example, liver), the deep-frozen tissue was previously homogenized on dry ice in a mortar, and the mRNA was further concentrated by means of oligo dT by standard methods (cf. Sambrook, J., Fritsch, E. F. and Maniatis, T., Molecular Cloning, second edition, Cold Spring Harbor (1989); this collection of methods also includes descriptions of all the other relevant standard processes of molecular biology used here). 5 to […] of the dissolved mRNA obtained in this way were denatured by standard processes and fractionated on 1% horizontal agarose gels. The mRNA was transferred by capillary blotting to Hybond N membranes (Amersham). Used as specific hybridization probe was a partial LDL receptor cDNA clone and as internal standard was a plasmid which contained a β-actin gene. Both plasmids were labeled using a random primer kit from Amersham to a specific activity of 5×10^9 cpm/μg. Prehybridization, hybridization and washing of the filters took place by standard processes. The filters were subsequently exposed on Cronex 4 films (Dupont) in the presence of an intensifying screen at -70° C. overnight or for up to 14 days, and the hybridization signals were quantified from the intensity of blackening of the film using a commercially available laser densitometer. Subsequently, the quotient of the intensity of the LDL receptor band and of the actin band was determined as internal standard to correct for variations in yield.
The HepG2 cells were incubated in RPMI 1640 standard medium with fetal calf serum (final concentration 10%). Serum-free RPMI medium was used as induction control. Subsequently, the complete mRNA was prepared and, by means of the Northern blot technique, the relevant LDL receptor mRNA and β-actin mRNA levels were determined. The quotient of the LDL receptor mRNA signal and of the β-actin mRNA signal of the control (without added substance) was set equal to 100%, and the stimulation above this of the LDL receptor mRNA levels achieved under the influence of the compounds was expressed as percentage of the control.

The test system of a further data set is serum lipoproteins. The data set can be described thus: Effect on serum lipoproteins of normolipemic male rats in a subchronic experiment. The class given is in vivo. As to conditions: Rattus norvegicus, po, by stomach tube, 7 administrations; for change in vivo at 30 mg/kg: 30 mg/kg/day; for change in vivo at 3 mg/kg: 3 mg/kg/day; for change in vivo at 10 mg/kg: 10 mg/kg/day. On the procedure:
3. In vivo, the increased LDL receptor activity in experimental animals is reflected by reduction in the lipoprotein fractions which can be metabolized by the LDL receptor (apoB/E receptor), i.e. a reduction in the LDL and VLDL levels is observed. The following test was carried out:
Effect on serum lipoproteins of normolipemic male rats in a subchronic experiment
Groups of in each case 10 male rats of the HOE: WISKf (SPF 71) strain with an initial weight above 180 g received once a day (in the morning) the test product or the comparison product in 1% aqueous ®Tylose MH 300 solution by stomach tube (0.5 ml/100 g of body weight); the control group in each case received only the vehicle. The last (7th) administration took place 24 hours before removal of blood and sacrifice. There was free access to food and water during the test. The food was withdrawn 24 hours before the removal of blood.
The serum from all 10 rats in a group was pooled for the analysis of the serum lipoproteins. The serum lipoproteins were separated with a preparative ultracentrifuge (KONTRON TGA 65, Rotor BECKMAN 50.4 Ti).
The following conditions specified by Koga, S., Horwitz, D. L., and Scanu, A. M., Journal of Lipid Research 10, 577 (1969) and Havel, R. J., Eder, H. A., and Bragdon, H. H., J. Clin. Invest. 34, 1345 (1955) were used to separate VLDL and LDL: 1. VLDL: Density<1.006, 40,000 rpm for 16 hours 2. LDL: Density 1.006-1.04, 40,000 rmp for 16 hours
Test kits from BOEHRINGER/Mannheim were used for the enzymatic determination of cholesterol and triglycerides in the separated lipoprotein fractions (cf. Siedel, J., Schlumberger, H., Klose, S., Ziegenhorn, J. and Wahlefeld, A. W., J. Clin. Chem. Clin. Biochem. 19, 838 (1981) and Wahlefeld, A. W., in: H. O. Bergmeier: Methoden der enzymatischen Analyse (Methods of Enzymatic Analysis), 2nd edition, Volume II, Verlag Chemie 1974, page 1878). The proteins were determined by the method of Lowry (Lowry, O. H., Roseborough, N. H., Farr, A. L. and Randell, R. J., J. Biol. Chem. 193, 265 (1951)).
Clofibrate was used as comparison product.

Data set [1] can be described thus: Solubility in water of salts (and free bases). The class given is physicochemical. The following applies: Table 2, salts of compounds I, temp. by No. [°C]: 1 25.5, 2 23.0, 3 22.4, 4 22.4, 5 22.0, 6 25.0, 7 25.5, 8 25.5, 9 25.5, 10 23.5, 11 23.5, 12 25.0, 13 24.0, 14 23.0, 15 22.0, 16 24.5, 17 22.5, 18 22.0; for solubility: water, read-out: Solubility in water, Concentration in % by wt.

Where [2] appears, read: read-out: Serum LDL cholesterol, % change from control at end of treatment.
Where [3] appears, read: read-out: Serum LDL protein, % change from control at end of treatment.
The mark [4] stands for this setting: read-out: Serum VLDL cholesterol, % change from control at end of treatment.
[5] abbreviates: read-out: Serum VLDL protein, % change from control at end of treatment.
Setting [6] is: read-out: Serum VLDL triglycerides, % change from control at end of treatment.

On to `CCC(C)N(C(=O)c1cnc(N2CC(C)(C)NC2=O)nc1N)c1cccc(C(F)(F)F)c1` (stereo not drawn) [Example 8, 4-amino-2-(4,4-dimethyl-2-oxo-1-imidazolidinyl)-pyrimidine-5-carboxylic acid N-sec.-butyl-N-(3-trifluoromethylphenyl)amide hydrochloride], for which the activity at 2 µM in the data set on LDL receptor mRNA was determined as 237%. Also, the change in vivo at 30 mg/kg is -30% in the data set on serum lipoproteins (setting [2]); -18% in the data set on serum lipoproteins (setting [3]); -39% with serum lipoproteins (setting [4]); -26% with serum lipoproteins (setting [5]); -37% in the data set on serum lipoproteins (setting [6]).

Take `CN(C(=O)c1cnc(N2CC(C)(C)NC2=O)nc1N)c1cc(C(F)(F)F)ccc1F` [Example 28]: the “1 part by mass dissolves in ... parts by H2O” value (“1 part by mass dissolves” below) in data set [1] is 72.7 parts by H2 O. The solubility in data set [1] was 13.6 mg/mL. Moreover, the change in vivo at 3 mg/kg with serum lipoproteins (setting [2]) is 1%; in the data set on serum lipoproteins (setting [3]), -26%; in the data set on serum lipoproteins (setting [4]), -2%; with serum lipoproteins (setting [5]) it was -29%. Further, the change in vivo at 10 mg/kg in the data set with serum lipoproteins (setting [2]) was -33%; with serum lipoproteins (setting [3]), -68%; in the data set with serum lipoproteins (setting [4]) it was -74%; in the data set on serum lipoproteins (setting [5]), 41%; in the data set with serum lipoproteins (setting [6]), 46%. The change in vivo at 30 mg/kg is -75% in the data set on serum lipoproteins (setting [2]); -62% with serum lipoproteins (setting [3]); -79% in the data set on serum lipoproteins (setting [4]); -49% with serum lipoproteins (setting [5]); -56% in the data set with serum lipoproteins (setting [6]).

For `CCN(C(=O)c1cnc(N2CC(C)NC2=O)nc1N)c1cccc(C(F)(F)F)c1` (stereo not drawn) [Example 58, 4-amino-2-(4-methyl-2-oxo-1-imidazolidinyl)pyrimidine-5-carboxylic acid N-ethyl-N-(3-trifluoromethylphenyl)amide hydrochloride], in data set [1], the “1 part by mass dissolves” value is reported as 6.8 parts by H2 O. Besides, in data set [1], the solubility amounted to 128 mg/mL. The change in vivo at 30 mg/kg was 46% with serum lipoproteins (setting [2]); -25% in the data set with serum lipoproteins (setting [3]); -59% in the data set with serum lipoproteins (setting [4]); -22% in the data set with serum lipoproteins (setting [5]); -40% with serum lipoproteins (setting [6]).

Turning to `CC1(C)CN(c2ncc(C(=O)N(CC3CC3)c3cccc(C(F)(F)F)c3)c(N)n2)C(=O)N1` [Example 12, 4-amino-2-(4,4-dimethyl-2-oxo-1-imidazolidinyl)pyrimidine-5-carboxylic acid N-cyclopropylmethyl-N-(3-trifluoromethylphenyl)amide hydrochloride], the activity at 2 µM in the data set with LDL receptor mRNA turned out to be 170%. Further, the change in vivo at 3 mg/kg in the data set with serum lipoproteins (setting [2]) is -26%; in the data set on serum lipoproteins (setting [3]), -5%; with serum lipoproteins (setting [4]), -6%; in the data set with serum lipoproteins (setting [5]), -8%; in the data set on serum lipoproteins (setting [6]), -4%. The change in vivo at 10 mg/kg was 46% in the data set with serum lipoproteins (setting [2]); -18% in the data set on serum lipoproteins (setting [3]); -63% with serum lipoproteins (setting [4]); -34% in the data set on serum lipoproteins (setting [5]); -51% in the data set with serum lipoproteins (setting [6]). The change in vivo at 30 mg/kg in the data set on serum lipoproteins (setting [2]) is -66%; in the data set on serum lipoproteins (setting [3]), -30%; in the data set on serum lipoproteins (setting [4]), -80%; with serum lipoproteins (setting [5]), -51%; in the data set on serum lipoproteins (setting [6]), -29%.

Take `CN(C(=O)c1cnc(N2CCNC2=O)nc1N)c1cccc(C(F)(F)F)c1` [Example 64, 4-amino-2-(2-oxo-1-imidazolidinyl)pyrimidine-5-carboxylic acid N-methyl-N-(3-trifluoromethylphenyl)amide hydrochloride]: the “1 part by mass dissolves” value in data set [1] is 19.8 parts by H2 O. In addition, in data set [1], the solubility worked out at 48.1 mg/mL. Further, the change in vivo at 30 mg/kg in the data set on serum lipoproteins (setting [2]) was -20%; in the data set on serum lipoproteins (setting [3]), -10%; in the data set on serum lipoproteins (setting [4]), -18%; in the data set with serum lipoproteins (setting [5]), -28%.

With `CC(C)(C)CN(C(=O)c1cnc(N2CC(C)(C)NC2=O)nc1N)c1cccc(C(F)(F)F)c1` [Example 37], the “1 part by mass dissolves” value in data set [1] came to 53.3 parts by H2 O. Moreover, the solubility in data set [1] stood at 19.1 mg/mL. Besides, the change in vivo at 10 mg/kg with serum lipoproteins (setting [2]) was -39%; with serum lipoproteins (setting [3]) it was -21%; in the data set with serum lipoproteins (setting [4]) it was -56%; in the data set on serum lipoproteins (setting [5]), -30%; in the data set with serum lipoproteins (setting [6]), -40%. Also, the change in vivo at 30 mg/kg in the data set on serum lipoproteins (setting [2]) is -76%; in the data set on serum lipoproteins (setting [3]) it was -49%; with serum lipoproteins (setting [4]) it was -85%; in the data set with serum lipoproteins (setting [5]) it was -48%; in the data set on serum lipoproteins (setting [6]) it was -75%.
